{"source": "patent US20090215627A1", "about": "“Crystal Structure of Biotin Carboxylase (Bc) Domain of Acetyl-Coenzyme a Carboxylase and Methods of Use Thereof” (priority 2004, published 2009)", "key": {"[1]": {"biological_target": "T1, F510I mutant yeast BC domain (Saccharomyces cerevisiae, UniProt Q00955, F510I)", "T1 construct": "Residues 2-581 of yeast ACC were sub-cloned into the pET28a vector; made in house; host or cells: E. coli", "T1 sequence (Q00955 2-581 F510I)": "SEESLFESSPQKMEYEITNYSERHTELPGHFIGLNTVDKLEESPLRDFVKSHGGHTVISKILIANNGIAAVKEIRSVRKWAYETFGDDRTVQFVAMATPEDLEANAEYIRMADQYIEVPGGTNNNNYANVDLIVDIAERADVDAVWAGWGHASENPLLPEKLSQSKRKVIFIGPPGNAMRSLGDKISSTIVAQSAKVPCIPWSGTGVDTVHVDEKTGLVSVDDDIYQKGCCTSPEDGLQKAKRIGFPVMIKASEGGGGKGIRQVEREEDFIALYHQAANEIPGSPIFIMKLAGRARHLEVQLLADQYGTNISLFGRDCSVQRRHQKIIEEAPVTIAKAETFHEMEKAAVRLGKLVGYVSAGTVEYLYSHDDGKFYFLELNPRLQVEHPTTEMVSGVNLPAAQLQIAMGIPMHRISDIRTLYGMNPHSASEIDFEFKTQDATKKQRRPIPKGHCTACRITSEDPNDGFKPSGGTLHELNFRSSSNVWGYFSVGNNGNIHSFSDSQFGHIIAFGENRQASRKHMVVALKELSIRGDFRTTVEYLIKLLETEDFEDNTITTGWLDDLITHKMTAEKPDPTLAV", "assay": "fluorescence-based binding assay, F510I mutant", "method": "(§1) We have developed a fluorescence-based binding assay using our structural information, which monitored the increase in Trp emission upon soraphen binding. The binding buffer initially contained 100 mM Tris (pH 8.0), 100 mM NaCl, and 50 nM wild-type or mutant enzyme, and increasing concentrations of soraphen A was titrated into the solution. The observed binding curve is fitted using conventional methods or the tight-binding model where appropriate.\n(§2) We next developed a fluorescence-based binding assay using the structural information. […] There is also a slight blue shift in the fluorescence emission maximum upon soraphen binding. The observed increase in Trp fluorescence as a function of soraphen concentration can be easily fit to a one-site binding model (FIG. 5), confirming that there is a single binding site for soraphen in the BC domain. The binding affinity obtained from this fluorescence assay is generally in good agreement with that based on the radioactive binding assay (Table 3) (Weatherly et al., supra (2004)). Compared to the radioactive assay, the fluorescence assay has the advantage that it can measure affinity between 1 nM to 10 μM, whereas the radioactive assay is limited to Kd values […] ˜50 nM."}, "[2]": {"biological_target": "T2, Wild-type yeast BC domain (Saccharomyces cerevisiae, UniProt Q00955)", "T2 construct": "Residues 2-581 of yeast ACC were sub-cloned into the pET28a vector; made in house; host or cells: E. coli BL21(DE3) Rosetta", "T2 sequence (Q00955 2-581)": "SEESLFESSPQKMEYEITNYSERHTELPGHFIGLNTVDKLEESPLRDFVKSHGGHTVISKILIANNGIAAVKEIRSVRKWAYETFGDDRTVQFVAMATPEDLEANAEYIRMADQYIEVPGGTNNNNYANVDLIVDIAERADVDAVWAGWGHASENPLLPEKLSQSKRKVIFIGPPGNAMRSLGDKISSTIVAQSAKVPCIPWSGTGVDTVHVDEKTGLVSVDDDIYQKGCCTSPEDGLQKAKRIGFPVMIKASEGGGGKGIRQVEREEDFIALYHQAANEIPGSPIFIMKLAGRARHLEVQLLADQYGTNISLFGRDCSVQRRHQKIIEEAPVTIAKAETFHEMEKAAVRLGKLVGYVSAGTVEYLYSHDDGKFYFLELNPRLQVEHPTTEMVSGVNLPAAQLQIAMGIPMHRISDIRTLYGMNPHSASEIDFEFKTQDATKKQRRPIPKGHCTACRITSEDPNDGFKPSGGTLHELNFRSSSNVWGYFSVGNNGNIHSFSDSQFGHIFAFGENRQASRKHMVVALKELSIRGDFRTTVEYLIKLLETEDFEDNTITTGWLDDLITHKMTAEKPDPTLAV", "assay": "fluorescence-based binding assay (Trp emission), wild-type", "settings": "50 nM enzyme", "method": "as §1, §2"}, "[3]": {"biological_target": "T3, K73R mutant yeast BC domain (Saccharomyces cerevisiae, UniProt Q00955, K73R)", "T3 construct": "Residues 2-581 of yeast ACC were sub-cloned into the pET28a vector; made in house; host or cells: E. coli", "T3 sequence (Q00955 2-581 K73R)": "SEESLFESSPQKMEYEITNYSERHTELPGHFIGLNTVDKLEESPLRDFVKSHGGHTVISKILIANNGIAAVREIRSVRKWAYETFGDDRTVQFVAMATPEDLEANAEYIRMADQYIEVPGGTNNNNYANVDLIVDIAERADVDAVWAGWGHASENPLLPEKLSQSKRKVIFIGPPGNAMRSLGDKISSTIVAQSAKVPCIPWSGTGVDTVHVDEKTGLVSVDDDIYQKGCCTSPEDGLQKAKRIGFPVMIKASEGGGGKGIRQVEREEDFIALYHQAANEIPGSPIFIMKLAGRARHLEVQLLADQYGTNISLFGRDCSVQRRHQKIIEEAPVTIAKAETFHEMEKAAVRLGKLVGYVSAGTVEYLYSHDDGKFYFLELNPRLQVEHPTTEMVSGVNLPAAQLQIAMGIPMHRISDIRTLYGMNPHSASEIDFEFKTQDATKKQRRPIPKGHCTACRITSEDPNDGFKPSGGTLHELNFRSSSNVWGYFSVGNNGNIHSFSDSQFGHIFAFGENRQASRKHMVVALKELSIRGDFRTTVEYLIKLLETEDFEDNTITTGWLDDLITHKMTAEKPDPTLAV", "assay": "radioactive binding assay, K73R mutant", "settings": "up to 60 nM soraphen A, 10 nM protein, read-out: Kd (nM) (radiactive assay)", "method": "(§3) The mutants were designed based on the structural information and made with the QuikChange kit (Stratagene). The mutants were sequenced, expressed in E. coli, and purified following the same protocol as that for the wild-type BC domain. The affinity of soraphen for the mutants were assessed using a radioactive binding assay (Weatherly et al., supra (2004))."}, "[4]": {"biological_target": "T2, Wild-type yeast BC domain", "assay": "native gel electrophoresis assay, wild-type BC domain", "settings": "12% native gel", "method": "(§4) FIG. 7. […] Schematic drawing of the dimer of E. coli BC subunit in complex with ATP (Thoden et al., supra 2000). The dimer axis is indicated with the magenta oval. […] (B). Native gel (12%) showing the electrophoretic mobility of wild-type and K73R mutant of yeast BC domain in the absence or presence of soraphen. […] Each lane was loaded with 20 μg of protein in 10 μl.\n(§5) To obtain experimental evidence for the effects of soraphen A on the oligomerization state of BC domains, we examined the mobility of the yeast BC domain in a native gel electrophoresis assay."}, "[5]": {"biological_target": "T4, I69E mutant yeast BC domain (Saccharomyces cerevisiae, UniProt Q00955, I69E)", "T4 construct": "Residues 2-581 of yeast ACC were sub-cloned into the pET28a vector; made in house; host or cells: E. coli", "T4 sequence (Q00955 2-581 I69E)": "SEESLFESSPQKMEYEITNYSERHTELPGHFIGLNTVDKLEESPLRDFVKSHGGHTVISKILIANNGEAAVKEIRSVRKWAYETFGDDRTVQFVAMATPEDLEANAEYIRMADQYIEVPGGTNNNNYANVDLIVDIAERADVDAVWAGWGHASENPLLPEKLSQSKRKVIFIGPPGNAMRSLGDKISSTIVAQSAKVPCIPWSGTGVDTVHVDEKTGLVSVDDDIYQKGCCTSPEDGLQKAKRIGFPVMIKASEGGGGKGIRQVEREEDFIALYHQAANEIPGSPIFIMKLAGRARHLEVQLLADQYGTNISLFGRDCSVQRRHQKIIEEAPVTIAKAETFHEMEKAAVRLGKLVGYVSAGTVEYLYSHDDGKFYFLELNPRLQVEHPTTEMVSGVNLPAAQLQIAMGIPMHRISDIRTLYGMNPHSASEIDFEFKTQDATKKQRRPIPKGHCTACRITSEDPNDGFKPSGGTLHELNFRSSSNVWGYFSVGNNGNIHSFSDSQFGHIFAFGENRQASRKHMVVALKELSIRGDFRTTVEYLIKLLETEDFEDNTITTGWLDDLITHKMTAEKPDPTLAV", "assay": "fluorescence-based binding assay, I69E mutant", "settings": "50 nM enzyme", "method": "as §1, §2"}, "[6]": {"biological_target": "T4, I69E mutant yeast BC domain", "assay": "radioactive binding assay, I69E mutant", "settings": "up to 60 nM soraphen A, 10 nM protein, read-out: Kd (nM) (radiactive assay)", "method": "as §3"}, "bacterial BC subunits": {"system": "bacterial BC subunits", "settings": "literature; cited from earlier work"}, "[7]": {"biological_target": "T1, F510I mutant yeast BC domain", "assay": "radioactive binding assay, F510I mutant", "settings": "read-out: Kd (nM) (radiactive assay)", "method": "as §3"}, "[8]": {"biological_target": "BC domain of eukaryotic ACCs", "settings": "literature; cited from earlier work"}, "[9]": {"biological_target": "T5, N485G mutant yeast BC domain (Saccharomyces cerevisiae, UniProt Q00955, N485G)", "T5 construct": "Residues 2-581 of yeast ACC were sub-cloned into the pET28a vector; made in house; host or cells: E. coli", "T5 sequence (Q00955 2-581 N485G)": "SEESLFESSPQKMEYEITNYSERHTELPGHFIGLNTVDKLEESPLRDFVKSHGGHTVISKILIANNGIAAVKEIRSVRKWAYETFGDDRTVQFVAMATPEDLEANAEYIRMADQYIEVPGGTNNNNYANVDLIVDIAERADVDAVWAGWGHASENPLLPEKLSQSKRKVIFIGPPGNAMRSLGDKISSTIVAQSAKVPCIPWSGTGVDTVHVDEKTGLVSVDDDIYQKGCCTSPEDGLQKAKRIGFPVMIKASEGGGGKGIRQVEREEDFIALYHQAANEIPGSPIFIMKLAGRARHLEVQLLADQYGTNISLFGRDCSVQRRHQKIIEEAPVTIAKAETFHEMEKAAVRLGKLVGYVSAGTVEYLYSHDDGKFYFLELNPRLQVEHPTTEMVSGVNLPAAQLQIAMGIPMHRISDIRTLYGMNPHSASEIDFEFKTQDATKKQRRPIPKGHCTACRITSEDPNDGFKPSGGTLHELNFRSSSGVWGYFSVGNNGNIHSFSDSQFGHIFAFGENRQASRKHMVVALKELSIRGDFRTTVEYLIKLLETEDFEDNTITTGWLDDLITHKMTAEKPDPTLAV", "assay": "radioactive binding assay, N485G mutant", "settings": "read-out: Kd (nM) (radiactive assay)", "method": "as §3"}, "BC domain of human ACC2": {"biological_target": "T6, BC domain of human ACC2 (Homo sapiens, UniProt O00763)", "T6 construct": "the BC domains of human ACC1 and ACC2", "assay": "binding to BC domain of human ACC2 (unpublished results)"}, "[10]": {"biological_target": "T3, K73R mutant yeast BC domain", "assay": "fluorescence-based binding assay, K73R mutant", "method": "as §1, §2"}, "[11]": {"biological_target": "T7, E477R mutant yeast BC domain (Saccharomyces cerevisiae, UniProt Q00955, E477R)", "T7 construct": "Residues 2-581 of yeast ACC were sub-cloned into the pET28a vector; made in house; host or cells: E. coli", "T7 sequence (Q00955 2-581 E477R)": "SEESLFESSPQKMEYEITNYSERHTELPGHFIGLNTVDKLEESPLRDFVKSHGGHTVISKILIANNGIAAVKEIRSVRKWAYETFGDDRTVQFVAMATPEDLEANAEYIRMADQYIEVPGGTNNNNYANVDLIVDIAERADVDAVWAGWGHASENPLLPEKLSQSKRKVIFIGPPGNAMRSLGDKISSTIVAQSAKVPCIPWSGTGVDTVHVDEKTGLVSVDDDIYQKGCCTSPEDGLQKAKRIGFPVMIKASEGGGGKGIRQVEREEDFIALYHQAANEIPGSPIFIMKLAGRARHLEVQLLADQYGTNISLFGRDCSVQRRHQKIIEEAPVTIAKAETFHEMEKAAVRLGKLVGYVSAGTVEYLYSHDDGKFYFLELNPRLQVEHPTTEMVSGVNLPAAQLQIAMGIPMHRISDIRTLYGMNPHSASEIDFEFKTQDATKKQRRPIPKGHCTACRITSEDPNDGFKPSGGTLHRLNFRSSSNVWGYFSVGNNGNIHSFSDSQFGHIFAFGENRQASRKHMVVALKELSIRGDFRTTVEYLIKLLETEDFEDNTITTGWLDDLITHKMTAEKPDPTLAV", "assay": "fluorescence-based binding assay, E477R mutant", "settings": "50 nM enzyme", "method": "as §1, §2"}, "[12]": {"biological_target": "T2, Wild-type yeast BC domain", "assay": "radioactive binding assay, wild-type yeast BC domain", "settings": "read-out: Kd (nM) (radiactive assay)", "method": "as §3"}, "[13]": {"biological_target": "yeast ACC Ser77 to Tyr mutant (Saccharomyces cerevisiae, UniProt Q00955, S77Y)", "settings": "yeast ACC with Ser77 mutated to Tyr, literature; cited from earlier work"}, "[14]": {"biological_target": "T8, active site of yeast BC domain (Saccharomyces cerevisiae, UniProt Q00955)", "T8 construct": "Residues 2-581 of yeast ACC were sub-cloned into the pET28a vector; made in house; host or cells: E. coli BL21(DE3) Rosetta", "T8 sequence (Q00955 2-581)": "as the sequence (Q00955 2-581) above", "assay": "binding of fluorescent ATP analog (Mant-ATP) to active site", "settings": "preliminary experiments, unpublished data"}, "[15]": {"biological_target": "T9, K73R mutant of the BC domain (Saccharomyces cerevisiae, UniProt Q00955, K73R)", "T9 construct": "Residues 2-581 of yeast ACC were sub-cloned into the pET28a vector; made in house; host or cells: E. coli", "assay": "native gel electrophoresis assay, K73R mutant", "settings": "K73R mutant of yeast BC domain, 12% native gel", "method": "as §4, §5"}, "[16]": {"biological_target": "T7, E477R mutant yeast BC domain", "assay": "radioactive binding assay, E477R mutant", "settings": "read-out: Kd (nM) (radiactive assay)", "method": "as §3"}, "[17]": {"biological_target": "T5, N485G mutant yeast BC domain", "assay": "fluorescence-based binding assay, N485G mutant", "settings": "50 nM enzyme", "method": "as §1, §2"}, "[18]": {"biological_target": "T10, W487R mutant yeast BC domain (Saccharomyces cerevisiae, UniProt Q00955, W487R)", "T10 construct": "Residues 2-581 of yeast ACC were sub-cloned into the pET28a vector; made in house; host or cells: E. coli", "T10 sequence (Q00955 2-581 W487R)": "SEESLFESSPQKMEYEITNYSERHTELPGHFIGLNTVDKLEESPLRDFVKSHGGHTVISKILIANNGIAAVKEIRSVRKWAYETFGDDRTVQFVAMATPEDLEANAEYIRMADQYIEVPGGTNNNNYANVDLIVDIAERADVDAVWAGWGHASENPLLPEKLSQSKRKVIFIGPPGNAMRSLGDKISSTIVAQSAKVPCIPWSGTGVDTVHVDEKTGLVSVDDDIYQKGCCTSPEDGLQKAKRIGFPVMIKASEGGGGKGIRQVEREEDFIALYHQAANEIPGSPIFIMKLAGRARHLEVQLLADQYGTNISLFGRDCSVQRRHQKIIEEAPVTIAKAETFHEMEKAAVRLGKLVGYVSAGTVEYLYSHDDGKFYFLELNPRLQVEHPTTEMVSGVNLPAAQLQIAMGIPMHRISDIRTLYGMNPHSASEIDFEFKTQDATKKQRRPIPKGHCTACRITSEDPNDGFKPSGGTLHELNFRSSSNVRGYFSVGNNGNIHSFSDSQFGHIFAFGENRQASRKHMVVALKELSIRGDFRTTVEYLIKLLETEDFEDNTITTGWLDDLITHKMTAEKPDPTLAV", "assay": "fluorescence-based binding assay, W487R mutant", "settings": "W487R mutant (data not shown)", "method": "as §1, §2"}, "ACC": {"system": "ACC", "settings": "kinetic data, literature; cited from earlier work"}, "[19]": {"biological_target": "K73R mutation of yeast ACC (Saccharomyces cerevisiae, UniProt Q00955, K73R)", "settings": "cited from earlier work"}, "[20]": {"biological_target": "T10, W487R mutant yeast BC domain", "assay": "radioactive binding assay, W487R mutant", "settings": "up to 60 nM soraphen A, 10 nM protein, read-out: Kd (nM) (radiactive assay)", "method": "as §3"}, "BC domain of human ACC1": {"biological_target": "T11, BC domain of human ACC1 (Homo sapiens, UniProt Q13085)", "T11 construct": "the BC domains of human ACC1 and ACC2", "assay": "binding to BC domain of human ACC1 (unpublished results)"}, "[21]": {"biological_target": "T12, S77Y mutant yeast BC domain (Saccharomyces cerevisiae, UniProt Q00955, S77Y)", "T12 construct": "Residues 2-581 of yeast ACC were sub-cloned into the pET28a vector; made in house; host or cells: E. coli", "assay": "radioactive binding assay, S77Y mutant", "settings": "up to 60 nM soraphen A, 10 nM protein, read-out: Kd (nM) (radiactive assay)", "method": "as §3"}, "[22]": {"settings": "literature SAR, in words; cited from earlier work"}}}
{"compound": "CO[C@H]1CCCC[C@@H](c2ccccc2)OC(=O)[C@@H](C)[C@@]2(O)O[C@H]([C@@H](C)[C@H](O)[C@H]2OC)[C@@H](C)/C=C/[C@H]1OC", "note": "[soraphen A]", "values": [{"measurement": "impact on the affinity for soraphen", "setting": "[1]; F510I mutation versus wild-type", "value": "minor impact"}, {"measurement": "Kd", "setting": "[1]; F510I yeast BC domain, 50 nM enzyme", "value": "10.6 ± 4.8", "unit": "nM"}, {"measurement": "Kd", "setting": "[2]", "value": "3.9 ± 0.7", "unit": "nM"}, {"measurement": "Kd", "setting": "[3]", "value": "> 60", "unit": "nM"}, {"measurement": "electrophoretic mobility in native gel in the presence of soraphen A", "setting": "[4]", "value": "a sharp band is observed, with the fastest migrating speed"}, {"measurement": "Kd", "setting": "[5]", "value": "104 ± 18", "unit": "nM"}, {"measurement": "Kd", "setting": "[6]", "value": "> 60", "unit": "nM"}, {"measurement": "effect on bacterial BC subunits", "setting": "bacterial BC subunits", "value": "no effect"}, {"measurement": "Kd", "setting": "[7]", "value": "5.7 ± 1", "unit": "nM"}, {"measurement": "Kd", "setting": "[8]", "value": "~1", "unit": "nM"}, {"measurement": "Kd", "setting": "[9]", "value": "2.7 ± 0.4", "unit": "nM"}, {"measurement": "Kd", "setting": "BC domain of human ACC2", "value": "~1", "unit": "nM"}, {"measurement": "Kd (in words)", "setting": "[10]; K73R mutant", "value": "micromolar range"}, {"measurement": "loss in affinity for soraphen", "setting": "[10]; K73R mutant versus wild-type", "value": 500, "unit": "fold"}, {"measurement": "Kd", "setting": "[10]; K73R yeast BC domain, 50 nM enzyme", "value": "2010 ± 174", "unit": "nM"}, {"measurement": "Kd", "setting": "[11]", "value": "274 ± 30", "unit": "nM"}, {"measurement": "Kd", "setting": "[12]", "value": "2 ± 0.9", "unit": "nM"}, {"measurement": "sensitivity of the enzyme to soraphen A", "setting": "[13]", "value": "insensitive"}, {"measurement": "interference with the binding of Mant-ATP to the active site", "setting": "[14]", "value": "does not interfere"}, {"measurement": "electrophoretic mobility in native gel in the presence of soraphen A", "setting": "[15]", "value": "not affected"}, {"measurement": "Kd", "setting": "[16]", "value": "24.7 ± 10.4", "unit": "nM"}, {"measurement": "Kd", "setting": "[17]", "value": "55 ± 4", "unit": "nM"}, {"measurement": "fluorescence change in the presence of soraphen", "setting": "[18]", "value": "little fluorescence change"}, {"measurement": "mode of inhibition with respect to the substrates of ACC", "setting": "ACC", "value": "noncompetitive"}, {"measurement": "resistance to soraphen A", "setting": "[19]", "value": "resistance"}, {"measurement": "Kd", "setting": "[20]", "value": "> 60", "unit": "nM"}, {"measurement": "Kd", "setting": "BC domain of human ACC1", "value": "~1", "unit": "nM"}, {"measurement": "Kd", "setting": "[21]", "value": "> 60", "unit": "nM"}]}
{"compound": "soraphen F", "values": [{"measurement": "activity relative to soraphen A", "setting": "[22]", "value": "moderate loss of activity"}]}
